Assay results from patent publication US20260209226A1 (EmpathBio, Inc., priority 2023, published 2026).
Several values for one entry are separate records, joined by “and”; a condition that tells them apart may be missing. Identical values can stand only once. Like-named read-outs stand apart in the source and are kept apart here.

Legend:
Format in all cases: cell-based
[1] = target: T1, Human Serotonin Transporter (SERT) (Homo sapiens, UniProt P31645); experiment: Human Serotonin Transporter (SERT) Uptake Inhibition Assay ([3H]-Serotonin uptake in HEK cells); conditions: HEK cells expressing recombinant SERT, individual experiments separated by commas; for inhibition at 10 µM: HEK293, 10 uM test compound; for inhibition at 100 µM: HEK293, 100 uM test compound; for SERT UPTAKE INHIBITION (%) @1 uM: 1 uM test compound; for SERT UPTAKE INHIBITION (%) @100 uM: 100 uM test compound; for inhibition at 1 µM: HEK293, 1 uM test compound
T1 construct: expressed in transfected cells; host or cells: HEK cells
Method: Compound activity is assessed using an in vitro assay. Briefly, HEK cells expressing recombinant serotonin transporter (SERT) are plated at 50,000 cells/well on a 96 well plate pre-coated with Matrigel one day prior to the experiment. Culture medium (DMEM/FBS) is removed and 30 μl of assay buffer (Tris-HCl 50 mM, EDTA 4 mM, BDA 0.1%) with the desired concentration of test compound is added. The plate is incubated at 37° C. for 15 minutes. Assay buffer (30 μl) containing the same concentration of compound diluted in [^3H]-Serotonin uptake buffer (final concentration 10 nM) is added to each well and the plate is incubated at 37° C. for 5 minutes. The reaction mixture is removed, and the cells are washed with 100 μl ice-cold assay buffer twice. Lysis buffer (50 μl) is added to the cells followed by a 5 minute incubation with gentle shaking at room temperature. The lysate is transferred to a 96 well isoplate. Optiphase supermix (100 μl) is added to each well with complete mixing. Radioactivity is counted with Microbeta Counter and reported as counts per minute (CPM). Fluoxetine is used as a control to measure non-specific uptake and for data normalization. Percent inhibition of [^3H]-Serotonin uptake calculations: 100×(1−(CPMtest sample−CPMnon_specific uptake)/(CPMMAX−CPMMIN)) are summarized in Table 2. Subsequent experiments using the same assay were performed with select compounds with a greater range of concentrations (10 half-log dilutions from a top concentration of 100 μM), allowing for the determination of IC50s. IC50s were determined using the log(inhibitor) vs. normalized response—Variable slope model in GraphPad Prism 10.1.0 and are summarized in Table 3.

[2] = target: T2, Human Dopamine Transporter (DAT) (Homo sapiens, UniProt Q01959); experiment: Human Dopamine Transporter (DAT) Uptake Inhibition Assay ([3H]-Dihydroxyphenylethylamine uptake in HEK cells); conditions: HEK cells expressing recombinant DAT, individual experiments separated by commas
T2 construct: expressed in transfected cells; host or cells: HEK cells
Method: (§1) Compound activity is assessed using an in vitro assay. Briefly, HEK cells expressing recombinant dopamine transporter (DAT) are plated at 50,000 cells/well on a 96 well plate pre-coated with Matrigel one day prior to the experiment. Culture medium (DMEM/FBS) is removed and 30 μl of assay buffer (Tris-HCl 50 mM, EDTA 4 mM, BDA 0.1%) with the desired concentration of test compound is added. The plate is incubated at 37° C. for 15 minutes. Assay buffer (30 μl) containing the same concentration of compound diluted in [^3H]-Dihydroxyphenylethylamine uptake buffer (final concentration 20 nM) is added to each well and the plate is incubated at 37° C.; for 5 minutes. The reaction mixture is removed, and the cells are washed with 100 μl ice-cold assay buffer twice. Lysis buffer (50 μl) is added to the cells followed by a 5 minute incubation with gentle shaking at room temperature. The lysate is transferred to a 96 well isoplate. Optiphase supermix (100 μl) is added to each well with complete mixing. Radioactivity is counted with Microbeta Counter and reported as CPM. Nomifensine is used as a control to measure non-specific uptake and for data normalization. Percent inhibition of [^3H]-Dihydroxyphenylethylamine uptake calculations: 100×(1−(CPMtest sample−CPMnon-specific uptake)/(CPMMAX−CPMMIN)). Test compounds were screened at 10 concentrations at half-log dilutions from a top concentration of 100 μM. IC50s were determined using the log(inhibitor) vs. normalized response—Variable slope model in GraphPad Prism 10.1.0 and are summarized in Table 3.

[3] = target: T3, Human Norepinephrine Transporter (NET) (Homo sapiens, UniProt P23975); experiment: Human Norepinephrine Transporter (NET) Uptake Inhibition Assay ([3H]-Norepinephrine uptake in HEK cells); conditions: HEK cells expressing recombinant NET, individual experiments separated by commas
T3 construct: expressed in transfected cells; host or cells: HEK cells
Method: as §1, with “Norepinephrine” for “dopamine”, “(NET)” for “(DAT)”, “[^3H]-Norepinephrine” for “[^3H]-Dihydroxyphenylethylamine”, “C.” for “C.;”, “Desiparmine” for “Nomifensine”, “100×(1−CPMtest sample−CPMnon_specific” for “100×(1−(CPMtest sample−CPMnon-specific”

[4] = 10 half-log dilutions from 100 μM, read-out: DAT Uptake Inhibition IC50
[5] = 10 half-log dilutions from 100 μM, read-out: NET Uptake Inhibition IC50
[6] = 10 half-log dilutions from 100 μM, read-out: SERT Uptake Inhibition IC50

T2 sequence (Q01959 whole entry): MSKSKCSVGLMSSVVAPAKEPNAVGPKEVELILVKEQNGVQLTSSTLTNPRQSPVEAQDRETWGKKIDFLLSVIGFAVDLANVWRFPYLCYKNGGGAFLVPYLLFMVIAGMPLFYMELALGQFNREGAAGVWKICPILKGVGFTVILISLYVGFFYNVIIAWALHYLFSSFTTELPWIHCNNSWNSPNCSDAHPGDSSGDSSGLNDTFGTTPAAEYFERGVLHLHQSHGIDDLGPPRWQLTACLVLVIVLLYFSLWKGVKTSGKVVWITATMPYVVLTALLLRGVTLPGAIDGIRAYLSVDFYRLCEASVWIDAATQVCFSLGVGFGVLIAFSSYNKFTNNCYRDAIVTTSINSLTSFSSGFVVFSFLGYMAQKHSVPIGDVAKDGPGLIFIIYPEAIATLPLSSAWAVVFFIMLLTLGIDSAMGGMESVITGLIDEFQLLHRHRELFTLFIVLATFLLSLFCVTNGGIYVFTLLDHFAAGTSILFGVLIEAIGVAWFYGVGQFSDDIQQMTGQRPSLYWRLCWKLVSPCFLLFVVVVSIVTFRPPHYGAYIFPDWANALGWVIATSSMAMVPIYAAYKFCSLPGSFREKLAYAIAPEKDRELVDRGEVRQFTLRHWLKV
T3 sequence (P23975 whole entry): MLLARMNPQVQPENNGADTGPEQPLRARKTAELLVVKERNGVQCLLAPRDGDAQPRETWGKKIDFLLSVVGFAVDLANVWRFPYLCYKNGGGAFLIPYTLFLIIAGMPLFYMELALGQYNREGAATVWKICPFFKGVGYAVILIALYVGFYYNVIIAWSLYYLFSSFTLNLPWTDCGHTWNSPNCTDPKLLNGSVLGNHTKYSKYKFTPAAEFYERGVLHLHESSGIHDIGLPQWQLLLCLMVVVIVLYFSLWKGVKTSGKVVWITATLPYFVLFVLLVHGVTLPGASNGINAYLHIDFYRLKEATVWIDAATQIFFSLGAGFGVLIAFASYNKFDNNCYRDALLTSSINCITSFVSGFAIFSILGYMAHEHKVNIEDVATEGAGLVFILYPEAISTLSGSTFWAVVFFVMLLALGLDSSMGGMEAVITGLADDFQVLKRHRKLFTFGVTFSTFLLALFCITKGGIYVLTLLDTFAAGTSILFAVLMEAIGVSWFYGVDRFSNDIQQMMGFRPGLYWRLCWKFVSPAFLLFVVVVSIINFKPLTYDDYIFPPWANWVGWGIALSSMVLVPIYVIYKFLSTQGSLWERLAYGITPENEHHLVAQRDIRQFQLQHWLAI
T1 sequence (P31645 whole entry): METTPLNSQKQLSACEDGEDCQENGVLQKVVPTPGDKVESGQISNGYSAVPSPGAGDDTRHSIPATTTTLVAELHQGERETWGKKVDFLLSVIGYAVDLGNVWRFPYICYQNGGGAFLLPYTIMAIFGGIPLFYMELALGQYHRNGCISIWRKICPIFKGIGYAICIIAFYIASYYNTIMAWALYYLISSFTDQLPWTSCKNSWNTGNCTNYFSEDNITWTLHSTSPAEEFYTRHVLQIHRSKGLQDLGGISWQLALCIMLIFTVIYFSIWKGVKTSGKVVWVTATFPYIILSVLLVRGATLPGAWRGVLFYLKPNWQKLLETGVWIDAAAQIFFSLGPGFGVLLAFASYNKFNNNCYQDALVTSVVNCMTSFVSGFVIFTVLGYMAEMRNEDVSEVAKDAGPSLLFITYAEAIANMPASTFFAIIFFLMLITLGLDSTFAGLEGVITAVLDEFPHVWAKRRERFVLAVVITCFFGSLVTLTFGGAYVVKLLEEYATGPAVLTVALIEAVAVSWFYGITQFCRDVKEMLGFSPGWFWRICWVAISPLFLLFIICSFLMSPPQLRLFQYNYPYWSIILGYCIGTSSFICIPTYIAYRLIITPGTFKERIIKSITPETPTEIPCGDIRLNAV

SMILES | inhibition at 10 µM [1] [%] | inhibition at 100 µM [1] [%] | IC50 [2, 4] [µM] | IC50 [3, 5] [nM] | SERT UPTAKE INHIBITION (%) @100 uM [1] | IC50 [1, 6] [µM] | also measured
CC(N)Cc1ccc2ncnn2c1 (stereo not drawn) [Compound 13] | 1.34 | 73.1 | – | – | – | – | –
CNC(C)Cc1ccc2ncsc2c1 (stereo not drawn) [Compound 2] | 67.9 | 88.8 | 21.8 | 4700 | 93.94% and 91.08% | 10.3 | SERT UPTAKE INHIBITION (%) @1 uM [1]: 43.44% and −5.16%
CC(N)Cc1ccn2ncnc2c1 (stereo not drawn) [Compound 7] | – | – | – | – | 84.23% and 59.35% | – | SERT UPTAKE INHIBITION (%) @1 uM [1]: 11.89% and −1.06%
CC(N)Cc1ccc2conc2c1 (stereo not drawn) [Compound 11, 1-(2,1-benzoxazol-6-yl) propan-2-amine] | 45.5 | 96.6 | – | – | – | – | –
CNC(C)Cc1ccc2scnc2c1 (stereo not drawn) [Compound 4] | 61.8 | 91.5 | 35.8 | 8300 | 87.43% | 11.3 | inhibition at 1 µM [1]: 20.2%
CNC(C)Cc1ccn2ncnc2c1 (stereo not drawn) [Compound 3] | – | 78.4 | – | – | 69.13% | – | SERT UPTAKE INHIBITION (%) @1 uM [1]: −1.21% and −1.77%
CNC(C)Cc1ccc2c(c1)OCO2 (stereo not drawn) [18 MDMA, 3,4-methylenedioxymethamphetamine, reference compound] | 53.3 | 85.1 | 5.29 | – | 88.7% and 98.0% and 86.2% | – | IC50 ([2]; DAT Uptake Inhibition IC50, 10 half-log dilutions from 100 μM): 3.5 µM and 5.48 µM and 7.48 µM and 10.3 µM and 13.5 µM; IC50 ([3]; NET Uptake Inhibition IC50, 10 half-log dilutions from 100 μM): 1400 nM and 2370 nM and 930 nM and 1340 nM and 2270 nM and 2890 nM; SERT UPTAKE INHIBITION (%) @1 uM [1]: 25.0% and −1.67%; SERT UPTAKE INHIBITION (%) @10 uM ([1]; 10 uM test compound, 10 µM): 70.1%; IC50 ([1]; SERT Uptake Inhibition IC50, 10 half-log dilutions from 100 μM): 5.25 µM and 5.08 µM and 3.19 µM and 1.48 µM and 2.07 µM and 2.21 µM
CNC(C)Cc1ccn2ccnc2c1 (stereo not drawn) [Compound 1] | – | 91.6 | – | – | – | – | inhibition at 1 µM [1]: 3.6%
CN[C@H](C)Cc1ccc2ncsc2c1 [Compound 17, (R)-1-(benzo[d]thiazol-6-yl)-N-methylpropan-2-amine] | 32.5 | 95.7 | – | – | – | – | –
CC(N)Cc1ccc2scnc2c1 (stereo not drawn) [Compound 8] | 68.7 | 82.4 | 20.7 | > 100000 | 90.93% | 11.5 | inhibition at 1 µM [1]: 24%
C[C@@H](N)Cc1ccc2ncsc2c1 [Compound 15, (R)-1-(benzo[d]thiazol-6-yl)propan-2-amine] | 38 | 97.5 | – | – | – | – | –
C[C@H](N)Cc1ccc2ncsc2c1 [Compound 14, (S)-1-(benzo[d]thiazol-6-yl)propan-2-amine] | 46.6 | 98.9 | > 100 | 5800 | – | 6.6 | –
CC(N)Cc1ccn2ccnc2c1 (stereo not drawn) [Compound 5] | – | 90.2 | – | – | – | – | inhibition at 1 µM [1]: -0.48%
CC(N)Cc1ccc2ncsc2c1 (stereo not drawn) [Compound 6] | – | 94.6 | > 100 | 1100 | 96.89% | 7.5 | SERT UPTAKE INHIBITION (%) @1 uM [1]: 51.1% and 4.94%
CN[C@@H](C)Cc1ccc2ncsc2c1 [Compound 16, (S)-1-(benzo[d]thiazol-6-yl)-N-methylpropan-2-amine] | 57.7 | 99.1 | > 100 | 4200 | – | 5.1 | –
CNC(C)Cc1ccc2conc2c1 (stereo not drawn) [Compound 10, [1-(2,1-benzoxazol-6-yl)propan-2-yl](methyl)amine] | 48.3 | 96.8 | – | – | – | – | –
CC(N)Cc1ccc2ncoc2c1 (stereo not drawn) [Compound 9, 1-(benzo[d]oxazol-6-yl)propan-2-amine] | -2.39 | 87.9 | – | – | – | – | –
CNC(C)Cc1ccc2ncnn2c1 (stereo not drawn) [Compound 12, methyl(1-{[1,2,4]triazolo[1,5-a]pyridin-6-yl}propan-2-yl)amine] | 0.25 | 83.2 | – | – | – | – | –
